Legend:
Liver microsome [1] = experiment: Drug metabolism in human liver microsomes assessed as retention time treated with 25 to 8000 uM lidocaine incubated for 5 mins prior to NADPH addition measured after 25 mins by HPLC analysis; type: ADME
Cytochrome P450 1A2 [2] = target: T1, Cytochrome P450 1A2 (Rattus norvegicus, UniProt P04799); experiment: Competitive inhibition of rat recombinant CYP1A2 expressed in Escherichia coli assessed as inhibition of PHEN O-deethylation by dixon plot analysis; type: ADME
T1 sequence (P04799 whole entry): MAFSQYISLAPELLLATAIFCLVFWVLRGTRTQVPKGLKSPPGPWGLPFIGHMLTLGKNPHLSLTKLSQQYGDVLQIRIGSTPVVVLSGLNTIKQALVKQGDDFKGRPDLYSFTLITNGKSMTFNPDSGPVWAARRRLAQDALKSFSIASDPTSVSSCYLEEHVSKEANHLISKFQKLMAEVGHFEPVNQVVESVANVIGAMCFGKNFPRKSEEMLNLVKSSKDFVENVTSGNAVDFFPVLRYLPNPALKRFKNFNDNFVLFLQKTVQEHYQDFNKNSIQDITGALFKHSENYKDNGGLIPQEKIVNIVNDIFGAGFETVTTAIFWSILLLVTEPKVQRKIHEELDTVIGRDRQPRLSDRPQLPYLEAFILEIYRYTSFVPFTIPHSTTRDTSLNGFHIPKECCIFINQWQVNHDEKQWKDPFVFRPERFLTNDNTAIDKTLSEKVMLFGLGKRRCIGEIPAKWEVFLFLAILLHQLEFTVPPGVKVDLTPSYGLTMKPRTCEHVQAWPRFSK

[3] = (§1) Drug metabolism in human liver microsomes assessed as enzyme-mediated O-deethylation incubated for 5 mins prior to NADPH addition measured after 25 mins by Michaelis-Menten equation analysis in presence of BSA; type: ADME; settings: liver microsomes
Liver microsome [4] = experiment: as §1; type: ADME; settings: microsomes, 25 min
Cytochrome P450 1A2 [5] = target: T1, Cytochrome P450 1A2; experiment: Binding affinity to rat recombinant CYP1A2 expressed in Escherichia coli assessed as fraction unbound by equilibrium dialysis method
Cytochrome P450 1A2 [6] = target: T1, Cytochrome P450 1A2; experiment: Binding affinity to rat recombinant CYP1A2 expressed in Escherichia coli assessed as fraction unbound by equilibrium dialysis method in presence of BSA; type: ADME
[7] = Fraction unbound in human liver microsomes by equilibrium dialysis method
[8] = Fraction unbound in human liver microsomes by equilibrium dialysis method in presence of BSA
[9] = (§2) Drug metabolism in human liver microsomes assessed as enzyme-mediated O-deethylation incubated for 5 mins prior to NADPH addition measured after 25 mins by Michaelis-Menten equation analysis; type: ADME; settings: liver microsomes
Liver microsome [10] = experiment: as §2; type: ADME; settings: microsomes, 25 min
Homo sapiens [11] = experiment: Intrinsic clearance in healthy human at 250 mg, iv; type: ADME, organism-based; settings: in vivo
Homo sapiens [12] = experiment: Hepatic clearance in healthy human at 250 mg, iv; type: ADME, organism-based, Liver; settings: in vivo
Liver microsome [13] = experiment: Drug metabolism in human liver microsomes assessed as retention time at 2 to 2000 uM incubated for 5 mins prior to NADPH addition measured after 25 mins by HPLC analysis; type: ADME
[14] = Stability of the compound assessed as retention time by HPLC analysis
[15] = substrate: CCOc1ccc(NC(C)=O)cc1; experiment: Activity of rat recombinant CYP1A2 expressed in Escherichia coli assessed as enzyme-mediated O-deethylation after 7.5 mins by Michaelis-Menten equation analysis in presence of BSA; type: ADME
[16] = substrate: CCOc1ccc(NC(C)=O)cc1; experiment: Activity of rat recombinant CYP1A2 expressed in Escherichia coli assessed as enzyme-mediated O-deethylation after 7.5 mins by Michaelis-Menten equation analysis; type: ADME

Molecule: CCNCC(=O)Nc1c(C)cccc1C
- Retention_time (Liver microsome [1]): 4.4 min

Molecule: CCCCC/C=C\C/C=C\C/C=C\C/C=C\CCCC(=O)O
- Ki (Cytochrome P450 1A2 [2]): 4.7 µM

Molecule: CCCCCCCC/C=C\CCCCCCCC(=O)[O-].[Na+]
- Ki (Cytochrome P450 1A2 [2]): 16.7 µM

Molecule: CCOc1ccc(NC(C)=O)cc1 [PHENACETIN]
- Km at 25 min ([3]; read-out: KmH): 6.6 µM
- Km at 25 min ([3]; read-out: KmL): 881 µM
- VmaxH (Liver microsome [4]): 772 pmol/min
- VmaxL (Liver microsome [4]): 820 pmol/min
- fraction unbound (Cytochrome P450 1A2 [5]): 0.98
- fraction unbound (Cytochrome P450 1A2 [6]): 0.8
- fraction unbound [7]: 0.98
- fraction unbound [8]: 0.78
- Km at 25 min ([9]; read-out: KmH): 27.8 µM
- Km at 25 min ([9]; read-out: KmL): 867 µM
- VmaxH (Liver microsome [10]): 811 pmol/min
- VmaxL (Liver microsome [10]): 523 pmol/min
- CL (Homo sapiens [11]): 933 L/h
- CLH (Homo sapiens [12]): 71 L/h
- Retention_time (Liver microsome [13]): 13 min
- Retention_time [14]: 3.6 min

Molecule: CCCCC/C=C\C/C=C\CCCCCCCC(=O)O [SODIUM LINOLATE]
- Ki (Cytochrome P450 1A2 [2]): 13.6 µM

B1: Cytochrome P450 1A2 (Rattus norvegicus) (protein)
chain: MAFSQYISLAPELLLATAIFCLVFWVLRGTRTQVPKGLKSPPGPWGLPFIGHMLTLGKNPHLSLTKLSQQYGDVLQIRIGSTPVVVLSGLNTIKQALVKQGDDFKGRPDLYSFTLITNGKSMTFNPDSGPVWAARRRLAQDALKSFSIASDPTSVSSCYLEEHVSKEANHLISKFQKLMAEVGHFEPVNQVVESVANVIGAMCFGKNFPRKSEEMLNLVKSSKDFVENVTSGNAVDFFPVLRYLPNPALKRFKNFNDNFVLFLQKTVQEHYQDFNKNSIQDITGALFKHSENYKDNGGLIPQEKIVNIVNDIFGAGFETVTTAIFWSILLLVTEPKVQRKIHEELDTVIGRDRQPRLSDRPQLPYLEAFILEIYRYTSFVPFTIPHSTTRDTSLNGFHIPKECCIFINQWQVNHDEKQWKDPFVFRPERFLTNDNTAIDKTLSEKVMLFGLGKRRCIGEIPAKWEVFLFLAILLHQLEFTVPPGVKVDLTPSYGLTMKPRTCEHVQAWPRFSK
- Km [15]: 3.8 µM
- Vmax [15]: 4.65e-05 µmol/min
- Km [16]: 13.6 µM
- Vmax [16]: 3.97e-05 µmol/min

Reference: ChEMBL document CHEMBL3526044, “Effect of albumin on human liver microsomal and recombinant CYP1A2 activities: impact on in vitro-in vivo extrapolation of drug clearance” (Drug Metab Dispos, 2012)
